Experimental data from patent US6177438A, “Morphinan derivatives and pharmaceutical use thereof” (priority 1993, dated 2001).
Structures can show the parent of a compound that is named as a salt.

tested on: acetic acid-induced writhing in ddy mice; assay: animal or person; type: in vivo, 5 week old ddy mice; conditions: Mus musculus, sc, s.c. 15 minutes before acetic acid, read-out: ED50
Experimental: 5 week old ddy mice were used in this test. After intraperitoneal administration of 0.1 ml of 0.6% aqueous acetic acid per 10 g of body weight, the number of writhing reactions that occurred in 10 minutes starting 10 minutes after administration was evaluated for the indicator. The test drug was administered subcutaneously into the backs of the animals 15 minutes before administration of acetic acid.

In order of falling ED50:
1. CCN(C(=O)Cc1ccc(Cl)c(Cl)c1)[C@@H]1CC[C@@]2(O)[C@H]3Cc4ccc(O)c5c4[C@@]2(CCN3CC2CC2)[C@H]1O5 [Compound 54, 17-cyclopropylmethyl-4,5α-epoxy-3,14β-dihydroxy-6β-(N-ethyl-3,4-dichlorophenylacetoamido)morphinan.cndot.hydrochloride]  0.72 mg/kg
2. CN(C(=O)CCCCc1ccccc1)[C@@H]1CC[C@@]2(O)[C@H]3Cc4ccc(O)c5c4[C@@]2(CCN3CC2CC2)[C@H]1O5 [Compound 203, 17-cyclopropylmethyl-3,14β-dihydroxy-4,5α-epoxy-6β-(N-methyl-5-phenylpentanoamido)morphinan hydrochloride]  0.38 mg/kg
3. CCCCN1CC[C@]23c4c5ccc(O)c4O[C@H]2[C@H](N(C)C(=O)/C=C/c2ccoc2)CC[C@@]3(O)[C@H]1C5.O=C(O)C(O)C(O)C(=O)O (relative stereo) [Compound 163, 17-butyl-3,14β-dihydroxy-4,5α-epoxy-6β-[N-methyl-trans-3-(3-furyl)acrylamido]morphinan tartrate]  0.37 mg/kg
4. COCCOC(=O)N(C)[C@@H]1CC[C@@]2(O)[C@H]3Cc4ccc(O)c5c4[C@@]2(CCN3CC2CC2)[C@H]1O5 [Compound 67, 17-cyclopropylmethyl-3,14β-dihydroxy-4,5α-epoxy-6β-(N-methyl-2-methoxyethoxycarbamido)morphinan.cndot.tartrate]  0.36 mg/kg
5. CN(C(=O)Cc1cccc2sccc12)[C@H]1CC[C@@]2(O)[C@H]3Cc4ccc(O)c5c4[C@@]2(CCN3CC2CC2)[C@H]1O5 [Compound 106, 17-cyclopropylmethyl-3,14β-dihydroxy-4,5α-epoxy-6α-(N-methyl-4-benzo[b]thienylacetamido)morphinan.cndot.hydrochloride]  0.25 mg/kg
6. CN(C(=O)Cc1ccc(N)cc1)[C@H]1CC[C@@]2(O)[C@H]3Cc4ccc(O)c5c4[C@@]2(CCN3CC2CC2)[C@H]1O5 [Compound 137, 17-cyclopropylmethyl-3,14β-dihydroxy-4,5α-epoxy-6α-(N-methyl-4-aminophenylacetamido)morphinanan.cndot.1.6 hydrochloride]  0.17 mg/kg
7. CN(C(=O)/C=C/c1cccnc1)[C@@H]1CC[C@@]2(O)[C@H]3Cc4ccc(O)c5c4[C@@]2(CCN3CC2CC2)[C@H]1O5.O=C(O)C(O)C(O)C(=O)O (relative stereo) [Compound 153, 17-cyclopropylmethyl-3,14β-dihydroxy-4,5α-epoxy-6β-[N-methyl-trans-3-(3-pyridyl)acrylamido]morphinan tartrate]  0.13 mg/kg
8. COc1ccc(C#CC(=O)N(C)[C@@H]2CC[C@@]3(O)[C@H]4Cc5ccc(O)c6c5[C@@]3(CCN4CC3CC3)[C@H]2O6)cc1.Cl [Compound 176, 17-cyclopropylmethyl-3,14β-dihydroxy-4,5α-epoxy-6β-[N-methyl-3-(4-methoxyphenyl)propiolamido]morphinan hydrochloride]  0.11 mg/kg
9. CN(C(=O)Cc1cccc(Br)c1)[C@H]1CC[C@@]2(O)[C@H]3Cc4ccc(O)c5c4[C@@]2(CCN3CC2CC2)[C@H]1O5 [Compound 26, 17-cyclopropylmethyl-3,14β-dihydroxy-4,5α-epoxy-6α-(N-methyl-3-bromophenylacetamido)morphinan.cndot.hydrobromate]  0.099 mg/kg
10. CN(C(=O)OCc1cccnc1)[C@H]1CC[C@@]2(O)[C@H]3Cc4ccc(O)c5c4[C@@]2(CCN3CC2CC2)[C@H]1O5 [Compound 44, 17-cyclopropylmethyl-4,5α-epoxy-3,14β-dihydroxy-6α-[N-methyl-(3-pyridyl)methyloxycarbamido]morphinan.cndot.tartrate]  0.084 mg/kg
11. CN(C(=O)NCc1ccccc1)[C@H]1CC[C@@]2(O)[C@H]3Cc4ccc(O)c5c4[C@@]2(CCN3CC2CC2)[C@H]1O5 [Compound 132, 17-Cyclopropylmethyl-3,14β-dihydroxy-4,5α-epoxy-6α-(N-methyl-N'-benzylureido)morphinan.cndot.tartrate]  0.073 mg/kg
12. CN(C(=S)NCc1ccccc1)[C@H]1CC[C@@]2(O)[C@H]3Cc4ccc(O)c5c4[C@@]2(CCN3CC2CC2)[C@H]1O5 [Compound 133, 17-cyclopropylmethyl-3,14β-dihydroxy-4,5α-epoxy-6α-(N-methyl-N'-benzylthioureido)morphinan.cndot.tartrate]  0.044 mg/kg
13. CC(=O)Oc1ccc2c3c1O[C@H]1[C@@H](N(C)C(=O)Cc4ccc(Cl)c(Cl)c4)CC[C@@]4(O)[C@@H](C2)N(CC2CC2)CC[C@]314 [Compound 139, 17-Cyclopropylmethyl-3-acetoxy-4,5α-epoxy-14β-hydroxy-6α-(N-methyl-3,4-dichlorophenylacetamido)morphinan.cndot.hydrochloride]  0.04 mg/kg
14. COCCOC(=O)N(C)[C@H]1CC[C@@]2(O)[C@H]3Cc4ccc(O)c5c4[C@@]2(CCN3CC2CC2)[C@H]1O5 [Compound 49, 17-cyclopropylmethyl-4,5α-epoxy-3,14β-dihydroxy-6α-(N-methyl-2-methoxyethoxycarbamido)morphinan.cndot.tartrate]  0.026 mg/kg
15. COc1ccc(C#CC(=O)N(C)[C@H]2CC[C@@]3(O)[C@H]4Cc5ccc(O)c6c5[C@@]3(CCN4CC3CC3)[C@H]2O6)cc1.O=C(O)C(O)C(O)C(=O)O [Compound 187, 17-cyclopropylmethyl-3,14β-dihydroxy-4,5α-epoxy-6α-[N-methyl-3-(4-methoxyphenyl)propiolamido]morphinan tartrate]  0.026 mg/kg
16. CC(=O)O[C@@]12CC[C@@H](N(C)C(=O)/C=C/c3ccccc3)[C@@H]3Oc4c(O)ccc5c4[C@@]31CCN(CC1CC1)[C@@H]2C5 [Compound 144, 17-Cyclopropylmethyl-3-hydroxy-14β-acetoxy-4,5α-epoxy-6β-(N-methylcinnamamido)morphinan.cndot.tartrate]  0.024 mg/kg
17. CN(C(=O)CCC1CCCC1)[C@H]1CC[C@@]2(O)[C@H]3Cc4ccc(O)c5c4[C@@]2(CCN3CC2CC2)[C@H]1O5 [Compound 48, 17-cyclopropylmethyl-4,5α-epoxy-3,14β-dihydroxy-6α-(N-methyl-3-cyclopentylpropionamido)morphinan.cndot.tartrate]  0.019 mg/kg
18. CN(C(=O)C#Cc1ccco1)[C@@H]1CC[C@@]2(O)[C@H]3Cc4ccc(O)c5c4[C@@]2(CCN3CC2CC2)[C@H]1O5.Cl [Compound 175, 17-cyclopropylmethyl-3,14β-dihydroxy-4,5α-epoxy-6β-[N-methyl-3-(2-furyl)propiolamido]morphinan hydrochloride]  0.018 mg/kg
19. CN(C(=O)Cc1cccc(N=C=S)c1)[C@H]1CC[C@@]2(O)[C@H]3Cc4ccc(O)c5c4[C@@]2(CCN3CC2CC2)[C@H]1O5 [Compound 149, 17-cyclopropylmethyl-3,14β-dihydroxy-4,5α-epoxy-6α-(N-methyl-3-isothiocyanatophenylacetamido)morphinanan.cndot.methanesulfonate]  0.013 mg/kg
20. CN(C(=O)CCC1CCCCC1)[C@H]1CC[C@@]2(O)[C@H]3Cc4ccc(O)c5c4[C@@]2(CCN3CC2CC2)[C@H]1O5 [Compound 94, 17-cyclopropylmethyl-3,14β-dihydroxy-4,5α-epoxy-6α-(N-methyl-3-cyclohexylpropionamido)morphinan.cndot.hydrochloride]  0.013 mg/kg
21. CN(C(=O)/C=C/c1ccoc1)[C@@H]1CC[C@@]2(O)[C@H]3Cc4cccc5c4[C@@]2(CCN3CC2CC2)[C@H]1O5 [Compound 204, 17-cyclopropylmethyl-4,5α-epoxy-14-hydroxy-6β-[N-methyl-trans-3-(3-furan)acrylamido]morphinan hydrochloride]  0.013 mg/kg
22. Cc1ccc(/C=C/C(=O)N(C)[C@@H]2CC[C@@]3(O)[C@H]4Cc5ccc(O)c6c5[C@@]3(CCN4CC3CC3)[C@H]2O6)cc1 [Compound 155, 17-cyclopropylmethyl-3,14β-dihydroxy-4,5α-epoxy-6β-(N-methyl-4-methylcinnamamido)morphinan hydrochloride]  0.012 mg/kg
23. Cc1ccc(/C=C/C(=O)N(C)[C@@H]2CC[C@@]3(O)[C@H]4Cc5ccc(O)c6c5[C@@]3(CCN4CC3CC3)[C@H]2O6)o1.Cl (relative stereo) [Compound 158, 17-cyclopropylmethyl-3,14β-dihydroxy-4,5α-epoxy-6β-[N-methyl-trans-3-(5-methyl-2-furyl)acrylamido]morphinan hydrochloride]  0.0071 mg/kg
24. CN(C(=O)C#Cc1ccco1)[C@H]1CC[C@@]2(O)[C@H]3Cc4ccc(O)c5c4[C@@]2(CCN3CC2CC2)[C@H]1O5.O=C(O)C(O)C(O)C(=O)O [Compound 186, 17-cyclopropylmethyl-3,14β-dihydroxy-4,5α-epoxy-6α-[N-methyl-3-(2-furyl)propiolamido]morphinan tartrate]  0.0061 mg/kg
25. Cc1occc1/C=C/C(=O)N(C)[C@@H]1CC[C@@]2(O)[C@H]3Cc4ccc(O)c5c4[C@@]2(CCN3CC2CC2)[C@H]1O5.Cl (relative stereo) [Compound 159, 17-cyclopropylmethyl-3,14β-dihydroxy-4,5α-epoxy-6β-[N-methyl-trans-3-(2-methyl-3-furyl)acrylamido]morphinan hydrochloride]  0.0032 mg/kg
26. Br.CN(C(=O)/C=C/c1cc(Br)cs1)[C@@H]1CC[C@@]2(O)[C@H]3Cc4ccc(O)c5c4[C@@]2(CCN3CC2CC2)[C@H]1O5 (relative stereo) [Compound 157, 17-cyclopropylmethyl-3,14β-dihydroxy-4,5α-epoxy-6β-[N-methyl-trans-3-(4-bromo-2-thienyl)acrylamido]morphinan hydrobromide]  0.003 mg/kg
27. CN(C(=O)/C=C/c1ccc(Cl)c(Cl)c1)[C@@H]1CC[C@@]2(O)[C@H]3Cc4ccc(O)c5c4[C@@]2(CCN3CC2CC2)[C@H]1O5 [Compound 179, 17-cyclopropylmethyl-3,14β-dihydroxy-4,5α-epoxy-6β-(N-methyl-3,4-dichlorocinnamamido)morphinan hydrochloride]  0.0028 mg/kg
28. CN(C(=O)C#Cc1ccoc1)[C@H]1CC[C@@]2(O)[C@H]3Cc4ccc(O)c5c4[C@@]2(CCN3CC2CC2)[C@H]1O5.O=C(O)C(O)C(O)C(=O)O [Compound 188, 17-cyclopropylmethyl-3,14β-dihydroxy-4,5α-epoxy-6α-[N-methyl-(3-furyl)propiolamido]morphinan tartrate]  0.002 mg/kg
